Here are results for one compound from US20070190143A1, “Disintegrating tablets comprising licarb azepine” (priority 2004, published 2007).

Converted amounts (≈) assume the structure as drawn.

The nature of the series: solubility in water. The class given is physicochemical. The following applies: 25° C. The text has this:
Licarbazepine is indicated to be suitable for the treatment of psychosomatic disturbances, epilepsy, trigeminal neuralgia and cerebral spasticity. […] The mechanisms by which the compounds of the invention exert their anticonvulsant effects are not completely understood, but their activity may be partly due to effects on ion flow across neuronal membranes. However, pharmacokinetics, absorption sites and mechanisms of action of the compounds of the invention are not understood in detail. Licarbazepine is slightly soluble in water (3.2 mg/ml at 25° C.). In view of this physical property, a parenteral formulation of licarbazepine can be prepared as described, e. g., in EP-1 033 988. Despite the merits of the known parenteral dosage form, there remains a need to establish an advantageous oral dosage form of the compounds of the invention. One of the problems that may occur using an oral dosage form is the fluctuation of blood levels of the compounds of the invention on repeated administration, which may be associated with side effects.

As for `NC(=O)N1c2ccccc2CC(O)c2ccccc21` (racemic) [Licarbazepine, 10,11-dihydro-10-hydroxy-5H-dibenz[b,f]azepine-5-carboxamide], the solubility (usually the concentration that dissolves in the medium under given conditions) was 3200 µg/mL (≈ 12.6 mM).
